In ChEMBL document CHEMBL1201862, “PubChem BioAssay data set” (2004):
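1) Cells in 96-well plates. 2) Compound, 48 h, 5 concentrations. 3) Linear interpolation between surrounding doses. 4) Unreached endpoint = highest concentration. The concentration for 50% growth inhibition is given as GI50.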 Activity calls are given as the source filed them. No stated cut-off is given here; in the data, active = GI50 up to about 1.1 µM and inactive = higher.

Tests used:
Experiment in all cases: NCI-60 cell line screen, 48 h
DU-145 = tested on: DU-145
786-0 = tested on: 786-0
Malme-3M = tested on: Malme-3M
MDA-MB-435 = tested on: MDA-MB-435
T47D = tested on: T47D
UACC-62 = tested on: UACC-62
NCI-H226 = tested on: NCI-H226
SNB-19 = tested on: SNB-19
HT-29 = tested on: HT-29
SNB-75 = tested on: SNB-75
A498 = tested on: A498
OVCAR-5 = tested on: OVCAR-5
CCRF-CEM = tested on: CCRF-CEM
SF-295 = tested on: SF-295
COLO 205 = tested on: COLO 205
Hs-578T = tested on: Hs-578T
SF-539 = tested on: SF-539
HCT-15 = tested on: HCT-15
U-251 = tested on: U-251
MDA-MB-231 = tested on: MDA-MB-231

Row | Structure (SMILES) | GI50 (DU-145) | GI50 (786-0) | GI50 (Malme-3M) | GI50 (MDA-MB-435) | GI50 (T47D) | GI50 (UACC-62) | GI50 (NCI-H226) | GI50 (SNB-19) | GI50 (HT-29) | GI50 (SNB-75) | GI50 (A498) | GI50 (OVCAR-5) | GI50 (CCRF-CEM) | GI50 (SF-295) | GI50 (COLO 205) | GI50 (Hs-578T) | GI50 (SF-539) | GI50 (HCT-15) | GI50 (U-251) | GI50 (MDA-MB-231)
1 | CC(=O)C1(/N=N/c2ccc(S(N)(=O)=O)cc2)CCOC1=O (stereo not given) | > 100 µM (inactive) | > 100 µM (inactive) | > 100 µM (inactive) | > 100 µM (inactive) | > 100 µM (inactive) | > 100 µM (inactive) | > 100 µM (inactive) | > 100 µM (inactive) | > 100 µM (inactive) | > 100 µM (inactive) | > 100 µM (inactive) | > 100 µM (inactive) | > 100 µM (inactive) | > 100 µM (inactive) | > 100 µM (inactive) | > 100 µM (inactive) | > 100 µM (inactive) | > 100 µM | > 100 µM (inactive) | > 100 µM (inactive)
2 | COC(=O)CCc1cc(O)c2c(c1)C(C(=O)OC)C(c1ccc(O)c(O)c1)O2 (stereo not given) | > 41.9 µM (inactive) | 26.1 µM (inactive) | 6.97 µM (inactive) | 1.48 µM (inactive) | 6.37 µM (inactive) | 8.15 µM (inactive) | 26.4 µM (inactive) | 11.1 µM (inactive) | 27.2 µM (inactive) | 2.35 µM (inactive) | > 44.9 µM (inactive) | > 65.5 µM (inactive) | 3.21 µM (inactive) | 17.7 µM (inactive) | 31.4 µM (inactive) | 25.2 µM (inactive) | 9.64 µM (inactive) | 4.36 µM | 11.8 µM (inactive) | 11.7 µM (inactive)
3 | COC(=O)/C=C1/OC(c2ccccc2)=CC1=O | 13.7 µM (inactive) | 14.5 µM (inactive) | 18.9 µM (inactive) | 18.3 µM (inactive) | 20.9 µM (inactive) | 18.6 µM (inactive) | 24.6 µM (inactive) | 17.3 µM (inactive) | 18.5 µM (inactive) | 15.5 µM (inactive) | 13.7 µM (inactive) | 18.6 µM (inactive) | 6.65 µM (inactive) | 14.2 µM (inactive) | 15.9 µM (inactive) | 22.9 µM (inactive) | 20.3 µM (inactive) | 15.6 µM | 16.4 µM (inactive) | 17 µM (inactive)
4 | COc1cc(/N=C\N(C)C)c2ncccc2c1 | > 100 µM (inactive) | 81.3 µM (inactive) | > 100 µM (inactive) | 28.5 µM (inactive) | 78 µM (inactive) | 54.1 µM (inactive) | 49.4 µM (inactive) | > 100 µM (inactive) | 69.8 µM (inactive) | 52.8 µM (inactive) | 42.7 µM (inactive) | > 100 µM (inactive) | 28 µM (inactive) | 93.3 µM (inactive) | > 100 µM (inactive) | 98.4 µM (inactive) | 33.5 µM (inactive) | 38.1 µM | 79.3 µM (inactive) | 35.2 µM (inactive)
5 | C/C(=N\Nc1nc2ccccc2s1)c1ncccn1 | 0.258 µM (active) | 0.0336 µM (active) | 0.0505 µM (active) | 0.363 µM (active) | < 0.01 µM (active) | 0.101 µM (active) | < 0.0185 µM (active) | 0.316 µM (active) | < 0.01 µM (active) | 0.617 µM (active) | 3.13 µM (inactive) | 0.415 µM (active) | 0.1 µM (active) | 0.11 µM (active) | < 0.01 µM (active) | 0.59 µM (active) | 0.0757 µM (active) | 0.0215 µM | < 0.0196 µM (active) | < 0.0179 µM (active)
6 | Cc1cc(C)c2c(=O)n(CN3CCN(c4ccccc4)CC3)sc2n1 | 22.2 µM (inactive) | 16.8 µM (inactive) | 37.2 µM (inactive) | 37.8 µM (inactive) | 15 µM (inactive) | 53.2 µM (inactive) | > 100 µM (inactive) | > 100 µM (inactive) | 18.7 µM (inactive) | 15.8 µM (inactive) | > 100 µM (inactive) | 27.7 µM (inactive) | 9.59 µM (inactive) | > 100 µM (inactive) | 19.5 µM (inactive) | 70.1 µM (inactive) | 18.6 µM (inactive) | 22.5 µM | 23.4 µM (inactive) | 20.4 µM (inactive)
